Several values for one entry are separate records, joined by “and”; a condition that tells them apart may be missing. Equal entries are not always repeated.
Experiments:
[1] = molecular target: T1, CAMKK2 kinase domain (132–470) (Homo sapiens, UniProt Q96RR4); experiment: CaMKK2B TR-FRET tracer displacement assay; format: binding; conditions: for FRET (IC50) / IC50: CaMKK2, displacement of tracer 236, average of 2 experiments; for increase in potency over compound 2: CaMKK2 FRET IC50 relative to compound 2
T1 construct: CAMKK2 kinase domain (132–470) was cloned in a pNIC-Bio2 vector; 10xHis tag followed by a TEV site (N, cleaved yes); made in house; host or cells: E. coli BL21(DE3)-R3-BirA
T1 sequence (Q96RR4 132-470): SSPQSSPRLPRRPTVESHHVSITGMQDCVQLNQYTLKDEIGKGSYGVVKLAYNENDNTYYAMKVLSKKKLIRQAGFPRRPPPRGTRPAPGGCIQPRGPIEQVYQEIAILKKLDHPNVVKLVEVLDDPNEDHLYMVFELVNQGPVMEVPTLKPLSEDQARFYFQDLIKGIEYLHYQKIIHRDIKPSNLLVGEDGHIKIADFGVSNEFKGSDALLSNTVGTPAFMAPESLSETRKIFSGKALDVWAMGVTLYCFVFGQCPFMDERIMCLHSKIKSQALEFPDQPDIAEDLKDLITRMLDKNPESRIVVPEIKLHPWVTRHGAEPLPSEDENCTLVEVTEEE
Source text: To more accurately determine the relative changes in potency of the TDZ analogues and to enable measurement of accurate IC50^’s, we developed a Time-Resolved Fluorescence Resonance Energy Transfer (TR-FRET) assay. The TR-FRET tracer displacement assays were generated using a protocol derived from the Lanthascreen binding assays (ThermoFisher Scientific, Waltham, MA, USA) [21].

[2] = molecular target: T2, human CaMKK2 (residues 50–588) (Homo sapiens, UniProt Q96RR4); experiment: CaMKK2 enzyme assay ([γ-32P]-ATP, CaMKKtide peptide); format: biochemical; conditions: for IC50: 50 μM ATP, 7 concentrations, mean of 2 experiments;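 as to all read-outs here: radiometric kinase assay: phosphate transfer from [γ-32P]-ATP to synthetic peptide substrate, 10 min reaction at 30 °C, peptide-bound radioactivity captured on P81 paper and measured by scintillation counting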
T2 construct: recombinant bacterial expressed human CaMKK2 (residues 50–588); made in house
Method: CaMKK2 activity was measured by determining the rate of transfer of radiolabeled phosphate from [γ-^32P]-ATP to a synthetic peptide substrate [22].
A standard 30 μL assay, 1 ng of recombinant bacterial expressed human CaMKK2 (residues 50–588) was added to assay buffer (50 mM HEPES [pH 7.4], 1 mM DTT, 0.02% (v/v) Brij-35) containing 200 μM CaMKKtide peptide substrate, 50 μM CaCl2, 1 μM calmodulin (Sigma-Aldrich Corp., St. Louis, MO, USA), 50 μM [γ-^32P]-ATP (Perkin Elmer) and 5 mM MgCl2, in the presence and absence of different concentrations of small-molecule inhibitors. Reactions were incubated for 10 min at 30 °C, after which they were terminated by spotting 15 μL onto P81 phosphocellulose paper (Whatman, GE Healthcare, Chicago, IL, USA) and washing extensively in 1% phosphoric acid. Radioactivity was quantified by scintillation counting.

[3] = set-up: method as in PMID 17519230, PMID 12540834; conditions: cited from earlier work
[4] = test system: arylhydrocarbon receptor (AhR); set-up: method as in PMID 18755850; conditions: cited from earlier work
[5] = test system: kinases including ERK8, MNK1 and PIM3; set-up: method as in PMID 17519230, PMID 12540834; conditions: cited from earlier work
[6] = Chemical stability of the dianilinothiadiazinone core (TLC); format: physicochemical; conditions: 48 h; neutral, acidic (HCl 2 M) or pH 9 aqueous conditions, BuNH2, PhNH2, PhSH, DDQ, Sn
Method: After the synthesis of the desired dianilino-TDZs (1–5), the stability of dianilinothiadiazinone in biological systems was assessed: 3,5-bis(phenylamino)-4H-1,2,6-thiadiazin-4-one (9) was subjected to neutral, acidic or slightly basic aqueous conditions (H2O/DMSO 50:50, THF/HCl 2 M 50:50 or THF/H2O 50:50 at pH 9 with a carbonate buffer), presence of amine or thiol nucleophiles (BuNH2 1 equiv., PhNH2 1 equiv., PhSH 1 equiv.), oxidizing [2,3-dichloro-5,6-dicyano-1,4-benzoquinone (DDQ) 2 equiv.] and reducing conditions (Sn, 2 equiv.).

Compound	IC50 [1]	Enzyme assay raw data (0 μM drug = 100.00) ([2]; [drug] 0.001 μM)	Enzyme assay raw data (0 μM drug = 100.00) ([2]; [drug] 0.01 μM)	Enzyme assay raw data (0 μM drug = 100.00) ([2]; [drug] 0.1 μM)	Enzyme assay raw data (0 μM drug = 100.00) ([2]; [drug] 1 μM)	Enzyme assay raw data (0 μM drug = 100.00) ([2]; [drug] 10 μM)	Enzyme assay raw data (0 μM drug = 100.00) ([2]; [drug] 100 μM)	melting point	other results
Cc1ccc(Nc2nsnc(Nc3ccccc3CO)c2=O)cc1O [Compound 17, 3-[(3-Hydroxy-4-methylphenyl)amino]-5-{[2-(hydroxymethyl)phenyl]amino}-4H-1,2,6-thiadiazin-4-one]	> 50 µM								FRET (IC50) [1]: effectively inactive
Cc1ccc(Nc2nsnc(Nc3cccc(C(F)(F)F)c3CO)c2=O)cc1O [Compound 18, 3-[(3-Hydroxy-4-methylphenyl)amino]-5-{[2-(hydroxymethyl)-3-(trifluoromethyl)phenyl]amino}-4H-1,2,6-thiadiazin-4-one]	> 50 µM								FRET (IC50) [1]: effectively inactive
O=C(O)c1ccc2c3c1cccc3c(=O)n1c3ccccc3nc21 [STO-609, 7-oxo-7H-benzimidazo[2,1-a]benz[de]isoquinoline-3-carboxylic acid, reference compound]		88.33	69.88	42.21	4.64	1.89	0.07		solubility [3]: poor solubility; activity on arylhydrocarbon receptor (AhR) [4]: agonist; off-target kinome profile [5]: unfavorable off-target kinome profile
Cc1ccc(Nc2nsnc(Nc3ccc(C#N)cc3)c2=O)cc1O [Compound 15, 4-({5-[(3-Hydroxy-4-methylphenyl)amino]-4-oxo-4H-1,2,6-thiadiazin-3-yl}amino)benzonitrile]	> 50 µM							280 °C (dec.)	
Cc1ccc(Nc2nsnc(-c3ccc(C(=O)O)c(C4CCCC4)c3)c2=O)cc1O [Compound 19, 2-Cyclopentyl-4-{5-[(3-hydroxy-4-methylphenyl)amino]-4-oxo-4H-1,2,6-thiadiazin-3-yl}-benzoic acid]	38 µM							277 to 278 °C	
Cc1ccc(Nc2nsnc(Nc3cccc(C#N)c3)c2=O)cc1O [Compound 14, 3-({5-[(3-Hydroxy-4-methylphenyl)amino]-4-oxo-4H-1,2,6-thiadiazin-3-yl}amino)benzonitrile]	> 50 µM							258 to 259 °C	
Cc1ccc(Nc2nsnc(Nc3ccccc3C(N)=O)c2=O)cc1O [Compound 10, 2-({5-[(3-Hydroxy-4-methylphenyl)amino]-4-oxo-4H-1,2,6-thiadiazin-3-yl}amino)benzamide]	7.8 µM	102.30	98.48	91.02	85.36	52.53	2.19		increase in potency over compound 2 [1]: > 8 fold; IC50 [2]: 11.9 µM
Cc1ccc(Nc2nsnc(Nc3ccc(C(=O)O)cc3)c2=O)cc1O [Compound 12, 4-({5-[(3-Hydroxy-4-methylphenyl)amino]-4-oxo-4H-1,2,6-thiadiazin-3-yl}amino)benzoic acid]	10.5 µM	102.38	95.03	89.54	79.70	28.43	0.83		increase in potency over compound 2 [1]: > 5 fold; IC50 [2]: 4.09 µM and 4.1 µM
Cc1ccc(Nc2nsnc(Nc3ccccc3C#N)c2=O)cc1O [Compound 13, 2-({5-[(3-Hydroxy-4-methylphenyl)amino]-4-oxo-4H-1,2,6-thiadiazin-3-yl}amino)benzonitrile]	43 µM							229 to 230 °C	
Cc1ccc(Nc2nsnc(Nc3ccc(-c4ncc[nH]4)cc3)c2=O)cc1O [Compound 11, 3-{[4-(1H-Imidazol-2-yl)phenyl]amino}-5-[(3-hydroxy-4-methylphenyl)amino]-4H-1,2,6-thiadiazin-4-one]	3.2 µM	98.56	93.09	84.85	79.37	42.11	1.23		increase in potency over compound 2 [1]: > 15 fold; IC50 [2]: 6.51 µM and 6.5 µM
4-({5-[(3-Hydroxy-4-methylphenyl)amino]-4-oxo-4H-1,2,6-thiadiazin-3-yl}(oxazol-4-ylmethyl)amino)-benzamide [Compound 16]	> 50 µM								
O=c1c(Nc2ccccc2)nsnc1Nc1ccccc1 [Compound 9, 3,5-bis(phenylamino)-4H-1,2,6-thiadiazin-4-one]									stability (by TLC) [6]: stable
